In US10934351B2, “Cancer stem cell-specific molecule” (CHUGAI SEIYAKU KABUSHIKI KAISHA, priority 2011, dated 2021):

B1: CD70 (protein, listed as Homo sapiens)
chain: MPEEGSGCSVRRRPYGCVLRAALVPLVAGLVICLVVCIQRFAQAQQQLPLESLGWDVAELQLNHTGPQQDPRLYWQGGPALGRSFLHGPELDKGQLRIHRDGIYMVHIQVTLAICSSTTASRHHPTTLAVGICSPASRSISLLRLSFHQGCTIASQRLTPLARGDTLCTNLTGTLLPSRNTDETFFGVQWVRP
B2: EDAR (protein, listed as Homo sapiens)
chain: MAHVGDCTQTPWLPVLVVSLMCSARAEYSNCGENEYYNQTTGLCQECPPCGPGEEPYLSCGYGTKDEDYGCVPCPAEKFSKGGYQICRRHKDCEGFFRATVLTPGDMENDAECGPCLPGYYMLENRPRNIYGMVCYSCLLAPPNTKECVGATSGASANFPGTSGSSTLSPFQHAHKELSGQGHLATALIIAMSTIFIMAIAIVLIIMFYILKTKPSAPACCTSHPGKSVEAQVSKDEEKKEAPDNVVMFSEKDEFEKLTATPAKPTKSENDASSENEQLLSRSVDSDEEPAPDKQGSPELCLLSLVHLAREKSATSNKSAGIQSRRKKILDVYANVCGVVEGLSPTELPFDCLEKTSRMLSSTYNSEKAVVKTWRHLAESFGLKRDEIGGMTDGMQLFDRISTAGYSIPELLTKLVQIERLDAVESLCADILEWAGVVPPASQPHAAS

How the values were obtained:
[1] = tested on: Lgr5-positive large intestine CSCs; assay: Cell proliferation / chemosensitivity assay (Cell Counting Kit-8), adherent CSCs; format: cell-based, human
Description: (§1) Floating and adherent CSCs were plated at about 100 and 1×10^4 cells/well in 96-well plates, respectively. On days 0 and 3, viable cell counts were determined by the Cell Counting Kit-8 Assay (Doujindo) according to the manufacturer's protocol. Average absorbance on day 0 was taken as 100%. For chemosensitivity assay, floating and adherent CSCs were plated at about 100 and 1×10^4 cells/well in 96-well plates, respectively. […] After three days of culture in the presence of the agents, the Cell Counting Kit-8 was added to the cells. The average absorbance of cells exposed to DMSO or medium alone was taken as 100%. All experiments were performed in triplicate.

[2] = tested on: Lgr5-negative large intestine CSCs; assay: Cell proliferation / chemosensitivity assay (Cell Counting Kit-8), Lgr5-negative CSCs; format: cell-based, human; conditions: for proliferation and survival of Lgr5-negative large intestine CSCs: 10 μg/ml, three days (FIGS. 10 and 24); for percentage of viable cells relative to non-treated control cells: Lgr5-negative CSCs (PLR59 and PLR123), three days, concentration series (FIG. 47)
Description: as §1

[3] = tested on: Lgr5-positive large intestine CSCs; assay: Change in Lgr5 expression of Lgr5-positive CSCs after chemotherapeutic treatment (flow cytometry / immunocytochemistry); format: cell-based, human; conditions: for Lgr5 state of drug-resistant cells arising from Lgr5-positive CSCs: three-day exposure, 10 μg/ml (FIGS. 11, 32, 25)
Description: Large intestine CSCs were incubated with mouse anti-human Lgr5 antibody (2T15E-2) and then with […] rat anti-mouse IgG antibody (Invitrogen) to stain Lgr5. The aldehyde dehydrogenase activity was measured using the AldeFluor Kit (Stemcell Technologies). Mouse cells were discriminated from human large intestine CSCs by staining with anti-mouse MHC class I antibody (Abcam), and PE- or APC-labeled goat […] IgG2a antibody (BioLegend). Dead cells were also removed using the 7-AAD Viability Dye (Beckman Coulter).
In addition, to assess whether Lgr5-negative large intestine CSCs undergo a transition into an Lgr5-positive state, the present inventors cultured adherently Lgr5-negative large intestine CSCs prepared via irinotecan treatment again in a serum-free stem cell culture medium. […] On the other hand, when Lgr5-positive adherent large intestine CSCs were cultured in an ultra-low adherent plate, the present inventors observed that some of the cells halted their growth and formed a spheroid-like structure and that the Lgr5 mRNA level was very low (FIGS. 12 and 33). The transition from the Lgr5-positive to Lgr5-negative state (and the reverse) was also confirmed by observations using a single cell in culture. […]
Using a stem cell medium, Lgr5-positive adherent cells were seeded at 3×10^5 cells/well in a 6-well plate (BD, Cat. No. 353046). […] After three-day culture, irinotecan-resistant cells were detected. […]
FITC-labeled mouse mAb to human CD326 (EpCAM), PE-labeled mouse mAb to human CD133/1 (AC133), PE-labeled mouse mAb to human CD44, PE-labeled mouse mAb to human CD166, PE-labeled mouse mAb to human CD24, PE-labeled mouse mAb to human CD26, or PE-labeled mouse mAb to human CD29. […] The ALDH activity was detected using AldeFluor Kit according to the procedure recommended by the manufacturer. […] Cells negative for 7-AAD Viability Dye were analyzed for cancer stem cell markers.

[4] = tested on: tumors derived from Lgr5-positive CSCs (PLR123); assay: Irinotecan treatment of NOG mice bearing tumors derived from Lgr5-positive CSCs; format: in vivo
Description: Mice bearing tumors derived from Lgr5-positive CSCs (PLR123) were treated with irinotecan, and their tumors were observed. Irinotecan or vehicle was administered to mice at days 12, 15, and 18 after tumor grafting. Scale bar represents 25 μm.
FIG. 55 Irinotecan was administered at a dose of 120 mg/kg/day to NOG mice at days 12, 15, and 18 after grafting tumors derived from Lgr5-positive CSCs (PLR123). This figure is a graph showing tumor volumes in control mice administered with vehicle (closed diamond) and mice administered with irinotecan (closed square or triangle). Each value represents mean+standard deviation.
FIG. 56 is a graph showing the numbers of Lgr5-positive and HLA-DMA-positive cells in xenograft tumor tissues. Thin sections of tissues were treated with Lgr5 antibody and HLA-DMA antibody, and then the numbers of Lgr5-positive and HLA-DMA-positive cells were measured. Values represent the total numbers of cells counted for respective groups (n=3).
To probe the possibility of in vivo transition to a growth inhibitor-resistant state, irinotecan was administered at the maximum tolerated dose (MTD) (120 mg/kg) into the peritoneal cavities of NOG mice bearing tumors derived from Lgr5-positive CSCs. […] By contrast, in vehicle-treated control mice, about one third of cancer cells were positive for Lgr5 in both ductal and budding areas (FIG. 54). Both Lgr5-positive cells and HLA-DMA-positive and Lgr5-negative cells were positive for EREG, and were identified to be CSCs (FIG. 54). After irinotecan treatment, Lgr5-positive cells appeared again (FIG. 54).

[5] = tested on: irinotecan-non-treated PLR123; assay: Internalization activity / anti-tumor effect with Mab-ZAP or Rat-ZAP (CellTiter-Glo); format: cell-based, human; conditions: with Mab-ZAP or Rat-ZAP 1 μg/ml, 72 hours
Description: (§2) Mab-ZAP and Rat-ZAP are anti-mouse IgG antibody and anti-rat IgG antibody, respectively, conjugated with saporin, a toxin that inhibits protein synthesis (Advanced Targeting Systems). To assess the activity of internalization into irinotecan-non-treated cells, PLR59 and PLR123 cells were seeded at a cell density of 30000 cells/80 μl/well to respective wells of a 96-well plate. Following day, each antibody solution was added at a final concentration of 0.01, 0.1, or 1 μg/ml to the respective wells. Then, Mab-ZAP or Rat-ZAP was added at a final concentration 1 μg/ml to the respective wells, and the plate was incubated at 37° C. for 72 hours in a CO2 incubator. To assess the activity of internalization into irinotecan-treated cells, PLR59 and PLR123 cells were seeded in a 96-well plate, and irinotecan was added at a final concentration of 15 μM to each well. The plate was incubated at 37° C. for 72 hours in a CO2 incubator. Various antibodies were assessed for the activity of internalization to cells cultured as described above in the presence or absence of irinotecan. For assay, the various antibodies were each assessed for the internalization activity into cells contained in each well where the medium was replaced with the same irinotecan-free medium as used for irinotecan-non-treated cells. Seventy-two hours after addition of antibodies and Mab-ZAP or Rat-ZAP, 10 μl of 3% SDS (Nacalai Tesque) was added to each well of the plate. The cells in the plate were lysed thoroughly by stirring the plate using a plate mixer. Then, 100 μl of CellTiter-Glo™ Luminescent Cell Viability Assay (Promega) was added to each well. The mixture in each well was assayed to determine its luminescent signal. […] In Table 14, symbols, −, +, ++, and +++, represent relative values for the internalization activity when a test antibody was assayed at a concentration of […]. […] Symbols, −, +, ++, and +++, indicate that the relative value is less than 5%, 5% or more and less than 15%, 15% or more and less than 25%, and 25% or more, respectively.

[6] = tested on: irinotecan-non-treated PLR59; assay: as above; format: cell-based, human; conditions: with Mab-ZAP or Rat-ZAP 1 μg/ml, 72 hours
Description: as §2

[7] = tested on: irinotecan-non-treated PLR123; assay: Flow cytometry (FCM) binding activity of commercially available antibodies to cell-surface antigens; parameters: species or system human; conditions: with antibody
Description: (§3) The present inventors tested whether an anti-tumor effect can be expected with target therapy using a membrane protein expressed at a high level as the target in irinotecan-treated or non-treated PLR59 and PLR123. Commercially available antibodies shown in Table 12 were assessed by flow cytometry (FCM) for the binding activity to antigens expressed on the cell surface of irinotecan-treated or non-treated PLR59 or PLR123.

[8] = tested on: irinotecan-non-treated PLR59; assay: as above; parameters: species or system human; conditions: with antibody
Description: as §3

[9] = 10 μg/ml, three days (FIGS. 10 and 24)
[10] = 120 mg/kg irinotecan (FIGS. 54 and 56)

Molecule | proliferation of Lgr5-positive large intestine CSCs [1, 9] | proliferation and survival of Lgr5-negative large intestine CSCs [2] | percentage of viable cells relative to non-treated control cells [2] | Lgr5 state of drug-resistant cells arising from Lgr5-positive CSCs [3] | internalization activity level [5] | internalization activity level [6] | binding activity by flow cytometry (FCM), Antibody + [7] | binding activity by flow cytometry (FCM), Antibody + [8] | other results
COc1cc(O)cc(O)c1C(=O)/C=C/c1ccccc1 [cardamonin] |  |  |  |  |  |  |  |  | viable cell count ([1]; 50 μM, three days of culture, Lgr5-positive CSCs (FIGS. 8 and 22)): 70%; viable cell count ([2]; 50 μM, three days of culture, Lgr5-negative CSCs (FIGS. 8 and 22)): about 50%
Cc1cc([N+](=O)[O-])ccc1NS(=O)(=O)c1cc(Cl)ccc1Cl [FH535] |  |  |  |  |  |  |  |  | proliferation of Lgr5-positive large intestine CSCs ([1]; 50 μM, three days of culture, PLR59 and PLR123 (FIGS. 8 and 22)): significantly reduced; proliferation of Lgr5-negative large intestine CSCs ([2]; 50 μM, three days of culture (FIGS. 8 and 22)): had no effect
CCc1c2c(nc3ccc(OC(=O)N4CCC(N5CCCCC5)CC4)cc13)-c1cc3c(c(=O)n1C2)COC(=O)[C@]3(O)CC [irinotecan] | significantly inhibited | did not affect | fully resistant | negative for Lgr5 |  |  |  |  | transition of single Lgr5-positive cells into the Lgr5-negative state ([3]; single cells cultured in multi-well plate, irinotecan treatment, within three days (FIG. 49, Table 5)): underwent a transition into the Lgr5-negative state; tumor growth ([4]; 120 mg/kg (MTD) into the peritoneal cavities, days 12, 15, 18 after grafting (FIG. 55)): inhibited almost completely; Lgr5-positive cells in tumor [4, 10]: dramatic decrease; number of Lgr5-negative and HLA-DMA-positive cells in tumor [4, 10]: increased significantly
O=c1[nH]cc(F)c(=O)[nH]1 [5-FU, fluorouracil] | significantly inhibited | did not affect | fully resistant | negative for Lgr5 |  |  |  |  | 
B1 |  |  |  |  | +++ (25% or more) | +++ (25% or more) | 1843 | 1177 | 
B2 |  |  |  |  | − (less than 5%) | ++ (15% or more and less than 25%) | 61 | 37 | 
